Where two headings read alike, the source gives them in different places.
What was measured:
Type in all cases: cell-based
[1] = tested on: Human prostate cancer cells LNCaP; assay: Inhibitory activity on androgen-dependent proliferation of prostate cancer cells; conditions: 1 nmol/L DHT, 72 hours, Cell Counting Kit-8, read-out: Proliferation inhibition concentration GI50 value
Method: Human prostate cancer cells LNCaP (Non-Patent Literature 5) having […] androgen receptor gene were seeded in a clear bottom 96 well microplate (BD) at 4.0×10^3/well with phenol red free RPMI1640 containing 5% DCC-FBS (hereinbelow, the medium is referred to as an evaluation medium), and then cultured overnight. […] Then, the number of viable cells was measured. The number of viable cells was measured by using Cell Counting Kit-8 (DOJINDO LABORATORIES).

human androgen receptor = molecular target: T1, human androgen receptor (Homo sapiens, UniProt P10275); assay: Antagonist activity for AR: MMTV-luc reporter transcription in COS-7 cells transfected with human AR, stimulated with DHT
T1 construct: expressed in transfected cells; host or cells: COS-7 cells (ATCC)
T1 sequence (P10275 1-920): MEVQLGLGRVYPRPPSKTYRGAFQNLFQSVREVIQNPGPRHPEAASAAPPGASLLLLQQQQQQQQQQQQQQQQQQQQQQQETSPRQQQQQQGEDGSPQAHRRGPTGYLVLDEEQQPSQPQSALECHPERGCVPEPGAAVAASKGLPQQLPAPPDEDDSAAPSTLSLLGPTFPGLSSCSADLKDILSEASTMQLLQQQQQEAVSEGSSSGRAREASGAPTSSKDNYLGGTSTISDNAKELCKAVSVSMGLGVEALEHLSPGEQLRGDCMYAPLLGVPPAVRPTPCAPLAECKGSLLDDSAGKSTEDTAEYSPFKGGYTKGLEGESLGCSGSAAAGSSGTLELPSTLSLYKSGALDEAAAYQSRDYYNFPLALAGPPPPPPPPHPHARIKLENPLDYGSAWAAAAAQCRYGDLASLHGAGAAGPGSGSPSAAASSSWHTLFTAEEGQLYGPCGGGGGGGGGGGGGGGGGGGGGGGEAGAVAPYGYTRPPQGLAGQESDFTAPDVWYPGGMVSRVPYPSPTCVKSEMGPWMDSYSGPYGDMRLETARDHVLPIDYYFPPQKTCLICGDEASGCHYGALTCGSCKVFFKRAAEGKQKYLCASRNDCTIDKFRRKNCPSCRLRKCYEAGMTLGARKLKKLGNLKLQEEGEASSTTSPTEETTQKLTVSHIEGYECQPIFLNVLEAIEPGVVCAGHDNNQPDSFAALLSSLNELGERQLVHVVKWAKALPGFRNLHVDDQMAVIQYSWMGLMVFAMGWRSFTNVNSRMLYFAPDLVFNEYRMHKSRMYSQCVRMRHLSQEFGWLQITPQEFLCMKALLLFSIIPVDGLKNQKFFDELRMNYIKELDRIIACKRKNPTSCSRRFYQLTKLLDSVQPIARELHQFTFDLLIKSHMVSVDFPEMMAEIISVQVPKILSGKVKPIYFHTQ
Method: Antagonist activity for AR was evaluated according to the following method. COS-7 cells (ATCC) were transfected with pMMTV-luc vector (reporter plasmid having, as an androgen response element, […] long terminal repeat) and pEX-hAR vector (human androgen receptor expression vector: which expresses human AR gene under control of CMV promoter) by using Nucleofector (registered trademark) Kit R (Lonza) as a transfection reagent and Amaxa (Lonza). The COS-7 cells obtained after transfection were seeded in a clear bottom 96 well microplate (BD) at 1.5×10^4/well with phenol red free RPMI1640 containing 10% charcoal-treated fetal bovine serum (hereinbelow, DCC-FBS) (hereinbelow, the medium is referred to as an evaluation medium), and then cultured overnight. […] Then, the transcription activity value of the reporter plasmid was measured. The transcription activity was measured by using Bright-Glo™ Luciferase Assay System (Promega).

AR expression in LNCaP = assay: Activity of reducing expression level of androgen receptor (Western blotting in LNCaP); conditions: Homo sapiens, read-out: AR expression reducing activity
Method: AR positive human prostate cancer cells LNCaP were seeded in a 6 well microplate (BD) at 3.5×10^5/well with RPMI1640 containing 5% FBS (hereinbelow, the medium is referred to as an evaluation medium), and then cultured overnight. […] After culture for 48 hours, the medium was removed and the cells were washed with PBS and added with 0.1 mL of Lysis buffer (M-PER added with Protease Inhibitor Cocktail), followed by keeping at 4° C. for 20 minutes. After cell lysis, the cell solution was centrifuged to recover the supernatant as cell lysate. […] The antibody-reacting band (anti AR receptor) was quantified by LAS Imaging System (FUJIFILM) using Super Signal West Dura Substrate (Thermo Scientific) as a detection reagent.
When the AR expression reducing activity is 50% or more, it is described as “reduced”.

[2] = tested on: AR positive human prostate cancer cells VCaP; assay: Agonist activity for AR: cell proliferation rate of VCaP cells; conditions: 5-10000 nmol/L, 72 hours, relative to evaluation medium only, more than 10% = agonist activity
Method: Then, the number of viable cells was measured (test group). As a control, the cells were cultured after being added with the evaluation medium only, and the number of viable cells was measured (control group). The number of viable cells was measured by using CellTiter-Glo™ Luminescent Cell Viability Assay (Promega). From the measured number of viable cells, cell proliferation rate with respect to the compound of Examples or the compound of Comparative Examples was calculated based on the number of viable cells measured in the case of using the evaluation medium only. Cell proliferation rate (%)=(Number of viable cells in test group−Number of viable cells in control group)/(Number of viable cells in control group)×100
By considering an error in the number of viable cells measured in the case of using the evaluation medium only, when the cell proliferation rate was more than 10% at any concentration of the 8 concentrations which had been evaluated, it was determined to have an agonist activity for AR.

[3] = COS-7 cells with pMMTV-luc and pEX-hAR, 1 nmol/L DHT, 24 hours, read-out: AR antagonist IC50
[4] = 10000 nmol/L, 48 hours, vs evaluation medium control

Row | IC50 (human androgen receptor; [3]) | Structure (SMILES) | GI50 [1] | IC50 (human androgen receptor) | inhibition at 10 µM (AR expression in LNCaP; 48 h) | Cell proliferation rate (%) [2] | inhibition at 10 µM (AR expression in LNCaP; [4])
1 | – | N#Cc1ccc(N2CCc3c(ncnc3Nc3ccc(N4CC5(COC5)C4)cc3)C2)cc1Cl [Example 28, 4-(4-((4-(2-oxa-6-azaspiro[3.3]heptan-6-yl)phenyl)amino)-5,6-dihydropyrido[3,4-d]pyrimidin-7(8H)-yl)-2-chlorobenzonitrile] | 0.68 µM | 0.68 µM | > 50% | 1.4% | –
2 | – | COc1ccc(Nc2ncnc3c2CCN(c2ccc(C#N)c(C(F)(F)F)c2)C3)cc1OC [Example 26, 4-(4-((3,4-Dimethoxyphenyl)amino)-5,6-dihydropyrido[3,4-d]pyrimidin-7(8H)-yl)-2-(trifluoromethyl)benzonitrile] | 1.2 µM | 1.1 µM | > 50% | 4.5% | –
3 | – | CC(C)(C)OC(=O)N1Cc2ccc(Nc3ncnc4c3CCN(c3ccc(C#N)c(Cl)c3)C4)cc2C1 [Example 29, tert-butyl 5-((7-(3-chloro-4-cyanophenyl)-5,6,7,8-tetrahydropyrido[3,4-d]pyrimidin-4-yl)amino)isoindoline-2-carboxylate] | 0.83 µM | 0.22 µM | > 50% | 2.4% | –
4 | – | CC(C)(O)c1ccc(Nc2ncnc3c2CCN(c2ccc([N+](=O)[O-])c(Br)c2)C3)nc1 [Example 17, 2-(6-((7-(3-bromo-4-nitrophenyl)-5,6,7,8-tetrahydropyrido[3,4-d]pyrimidin-4-yl)amino)pyridin-3-yl)propan-2-ol] | 1.2 µM | 0.03 µM | > 50% | 9.7% | –
5 | – | CCNC(=O)c1ccc(Nc2ncnc3c2CCN(c2ccc(C#N)c(C(F)(F)F)c2)C3)nc1F [Example 4, 6-((7-(4-cyano-3-(trifluoromethyl)phenyl)-5,6,7,8-tetrahydropyrido[3,4-d]pyrimidin-4-yl)amino)-N-ethyl-2-fluoronicotinamide] | 1.1 µM | 0.045 µM | > 50% | 9.7% | –
6 | 0.07 µM | Cc1cc(N2CCc3c(ncnc3Nc3ccc(C(C)(C)O)cn3)C2)ccc1[N+](=O)[O-] [Example 16, 2-(6-((7-(3-methyl-4-nitrophenyl)-5,6,7,8-tetrahydropyrido[3,4-d]pyrimidin-4-yl)amino)pyridin-3-yl)propan-2-ol] | 0.23 µM | – | – | −1.8% | > 50%
7 | – | CCNC(=O)c1ccc(Nc2ncnc3c2CCN(c2ccc(C#N)c(Cl)c2)C3)nc1F [Example 1, 6-((7-(3-Chloro-4-cyanophenyl)-5,6,7,8-tetrahydropyrido[3,4-d]pyrimidin-4-yl)amino)-N-ethyl-2-fluoronicotinamide] | 0.083 µM | 0.0026 µM | > 50% | 9.7% | –
8 | – | CC(C)(C)OC(=O)NCCNC(=O)c1ccc(Nc2ncnc3c2CCN(c2ccc(C#N)c(C(F)(F)F)c2)C3)nn1 [Example 8, tert-butyl (2-(6-((7-(4-cyano-3-(trifluoromethyl)phenyl)-5,6,7,8-tetrahydropyrido[3,4-d]pyrimidin-4-yl)amino)pyridazine-3-carboxamido)ethyl)carbamate] | 1.1 µM | 0.059 µM | > 50% | 5.3% | –
9 | 1.3 µM | CC(C)Oc1cc(N2CCc3c(ncnc3Nc3ccc(C(C)(C)O)cn3)C2)ccc1[N+](=O)[O-] [Example 19, 2-(6-((7-(3-isopropoxy-4-nitrophenyl)-5,6,7,8-tetrahydropyrido[3,4-d]pyrimidin-4-yl)amino)pyridin-3-yl)propan-2-ol] | 0.22 µM | – | – | 7.8% | > 50%
10 | 0.032 µM | CC(C)(O)c1ccc(Nc2ncnc3c2CCN(c2ccc([N+](=O)[O-])c(Cl)c2)C3)nc1 [Example 13, 2-(6-((7-(3-Chloro-4-nitrophenyl)-5,6,7,8-tetrahydropyrido[3,4-d]pyrimidin-4-yl)amino)pyridin-3-yl)propan-2-ol] | 0.3 µM | – | – | 7.3% | > 50%
11 | 0.18 µM | O=C(NCC(F)(F)F)c1ccc(Nc2ncnc3c2CCN(c2ccc([N+](=O)[O-])c(C(F)(F)F)c2)C3)nn1 [Example 24, 6-((7-(4-Nitro-3-(trifluoromethyl)phenyl)-5,6,7,8-tetrahydropyrido[3,4-d]pyrimidin-4-yl)amino)-N-(2,2,2-trifluoroethyl)pyridazine-3-carboxamide] | 0.79 µM | – | – | 7.8% | > 50%
12 | – | COc1ccc(Nc2nc(C#N)nc3c2CCN(c2ccc(C#N)c(C(F)(F)F)c2)C3)cc1 [Example 47, 7-(4-Cyano-3-(trifluoromethyl)phenyl)-4-((4-methoxyphenyl)amino)-5,6,7,8-tetrahydropyrido[3,4-d]pyrimidine-2-carbonitrile] | 0.45 µM | 0.7 µM | > 50% | −1.7% | –
13 | – | N#Cc1ccc(N2CCc3c(ncnc3Nc3ccc(C(=O)N4CCCCCC4)cn3)C2)cc1C(F)(F)F [Example 6, 4-(4-((5-(azepane-1-carbonyl)pyridin-2-yl)amino)-5,6-dihydropyrido[3,4-d]pyrimidin-7(8H)-yl)-2-(trifluoromethyl)benzonitrile] | 0.055 µM | 0.13 µM | > 50% | −1.0% | –
14 | – | CC(=O)N1CCN(CCCOc2ccc(Nc3ncnc4c3CCN(c3ccc(C#N)c(Cl)c3)C4)cc2Cl)CC1 [Example 42, 4-(4-((4-(3-(4-Acetylpiperazin-1-yl)propoxy)-3-chlorophenyl)amino)-5,6-dihydropyrido[3,4-d]pyrimidin-7(8H)-yl)-2-chlorobenzonitrile] | 1.3 µM | 0.56 µM | > 50% | 5.1% | –

Row | Structure (SMILES) | IC50 (human androgen receptor; [3]) | GI50 [1] | IC50 (human androgen receptor) | inhibition at 10 µM (AR expression in LNCaP; 48 h) | Cell proliferation rate (%) [2] | inhibition at 10 µM (AR expression in LNCaP; [4])
15 | CC(C)(C)OC(=O)N1CCc2ccc(Nc3ncnc4c3CCN(c3ccc(C#N)c(Cl)c3)C4)cc2C1 [Example 36, tert-Butyl 7-((7-(3-chloro-4-cyanophenyl)-5,6,7,8-tetrahydropyrido[3,4-d]pyrimidin-4-yl)amino)-3,4-dihydroisoquinoline-2(1H)-carboxylate] | 0.18 µM | 0.15 µM | – | > 50% | 4.9% | –

Reference: US10370372B2, “Fused pyrimidine compound or salt thereof” (TAIHO PHARMACEUTICAL CO., LTD., priority 2015, dated 2019)
